Source: patent US4073902A, “O-Substituted 7β-amino-3-cephem-3-ol-4-carboxylic acid compounds” (priority 1972, dated 1978)

Legend:
E. coli 5 = test: oral ED50, systemic infection in mice; conditions: Escherichia coli, 5, in Mus musculus, read-out: oral ED50
Description: (§4) **two doses; the first administered immediately after infection, the

Serratia marcescens 344 = test: oral ED50, systemic infection in mice; conditions: Serratia marcescens, 344, in Mus musculus, read-out: oral ED50
P. mirabilis 774 = test: oral ED50, systemic infection in mice; conditions: Proteus mirabilis, 774, in Mus musculus, read-out: oral ED50
E. coli 9-25.1. = test: oral ED50, systemic infection in mice; conditions: Escherichia coli, 925.1., in Mus musculus, read-out: oral ED50
Description: as §4

Pasteurella multocid 341 = test: oral ED50, systemic infection in mice; conditions: Pasteurella, 341, in Mus musculus, read-out: oral ED50
E. coli 9 = test: oral ED50, systemic infection in mice; conditions: Escherichia coli, 9, in Mus musculus, read-out: oral ED50
Description: as §4

[1] = test system: Pseudomonas aeruginosa 799; test: oral ED50, systemic infection in mice; conditions: Pseudomonas aeruginosa, 799, in Mus musculus, read-out: oral ED50
[2] = test system: Salmonella typhimurium 273; test: oral ED50, systemic infection in mice; conditions: Salmonella enterica, in Mus musculus, read-out: oral ED50
Description: as §4

S. pyogenes Aronson = test: oral ED50, systemic infection in mice; conditions: Streptococcus pyogenes, in Mus musculus, read-out: oral ED50
E. coli 16 = test: oral ED50, systemic infection in mice; conditions: Escherichia coli, 16, in Mus musculus, read-out: oral ED50
Description: as §4

E. coli 205 R^+TEM = test: oral ED50, systemic infection in mice; conditions: Escherichia coli, in Mus musculus, read-out: oral ED50
Description: as §4

K. pneumoniae 329 = test: oral ED50, systemic infection in mice; conditions: Klebsiella pneumoniae, 329, in Mus musculus, read-out: oral ED50
[3] = test system: Staphylococcus aureus 10B; test: oral ED50, systemic infection in mice; conditions: in Mus musculus, read-out: oral ED50
Description: (§5) *single dose of antibiotic administered immediately after infection

E. coli 2018 = test: oral ED50, systemic infection in mice; conditions: Escherichia coli, 2018, in Mus musculus, read-out: oral ED50
Description: as §4

E. coli 2 = test: oral ED50, systemic infection in mice; conditions: Escherichia coli, 2, in Mus musculus, read-out: oral ED50
Description: as §4

[4] = test system: Streptococcus pyogenes 38; test: oral ED50, systemic infection in mice; conditions: Streptococcus pyogenes, 38, in Mus musculus, 3 h, read-out: oral ED50
P. vulgaris 1076 = test: oral ED50, systemic infection in mice; conditions: Proteus vulgaris, 1076, in Mus musculus, read-out: oral ED50
Escherichia coli 205 = test: oral ED50, systemic infection in mice; conditions: Escherichia coli, 205, in Mus musculus, read-out: oral ED50
E. coli 2018 R^+TEM = test: oral ED50, systemic infection in mice; conditions: Escherichia coli, in Mus musculus, read-out: oral ED50
Description: as §4

P. rettgeri 856 = test: oral ED50, systemic infection in mice; conditions: Providencia rettgeri, 856, in Mus musculus, read-out: oral ED50
[5] = test system: Enterobacter cloacae P 99; test: oral ED50, systemic infection in mice; conditions: P99, in Mus musculus, read-out: oral ED50
[6] = test system: Diplococcus pneumoniae 111/84; test: oral ED50, systemic infection in mice; conditions: Streptococcus pneumoniae, 111/84, in Mus musculus, read-out: oral ED50
proteus morganii 2359 = test: oral ED50, systemic infection in mice; conditions: Morganella morganii, 2359, in Mus musculus, read-out: oral ED50
in vivo = conditions: mouse, in vivo
Description: (§1) ^a calcultated according to Miller-Tainter ± standard error (Proc.
(§2) ^b calculated according to the Probit-method with 95% confidence
(§3) limits (Goulden A., Methods of Statistical Analysis, J. Wiley and Sons, […]

S. aureus 2999 i^+ p^+ = test: oral ED50, systemic infection in mice; conditions: Staphylococcus aureus, in Mus musculus, read-out: oral ED50
Description: as §5

Shigella flexneri 11836 = test: oral ED50, systemic infection in mice; assay type: in vivo, Shigella flexneri; female MF 2 mice; conditions: p.o., 2 doses
S. typhimurium 277 = test: oral ED50, systemic infection in mice; conditions: Salmonella enterica, in Mus musculus, read-out: oral ED50
[7] = test system: Klebsiella pneumoniae 327; test: oral ED50, systemic infection in mice; conditions: Klebsiella pneumoniae, 327, in Mus musculus, read-out: oral ED50
[8] = test system: S. aureus 102 (methicillin res.); test: oral ED50, systemic infection in mice; conditions: Staphylococcus aureus, in Mus musculus, read-out: oral ED50
Description: as §5

E. coli 1239/19 = test: oral ED50, systemic infection in mice; conditions: Escherichia coli, 1239/19, in Mus musculus, read-out: oral ED50
Description: as §4

[9] = test system: systemic infections due to various bacterial strains; conditions: female MF 2 mice; in words, compared with II, III, IV
bactericidal activity = conditions: in words, compared with cephradin (III) and cephalexin (IV)
solubility in urin = assay type: physicochemical; conditions: in words, compared with compound II
mice = test: in vivo; conditions: mice; in words, compared with II and IV
Description: as §1, §2, §3

## COC1=C(C(=O)O)N2C(=O)[C@@H](NC(=O)[C@H](N)c3ccccc3)[C@H]2SC1 [compound II]
E. coli 5
  ED50: 13 mg/kg
Serratia marcescens 344
  ED50: > 1000 mg/kg
P. mirabilis 774
  ED50: 54 mg/kg
E. coli 9-25.1.
  ED50: > 300 mg/kg
Pasteurella multocid 341
  ED50: ~20 mg/kg
E. coli 9
  ED50: 210 mg/kg
[1]
  ED50: > 300 mg/kg
[2]
  ED50: 60 mg/kg
S. pyogenes Aronson
  ED50: 2.5 mg/kg
E. coli 16
  ED50: > 300 mg/kg
E. coli 205 R^+TEM
  ED50: 48 mg/kg
K. pneumoniae 329
  ED50: 35 mg/kg
[3]
  ED50: 6 mg/kg
E. coli 2018
  ED50: 15 mg/kg
E. coli 2
  ED50: > 1000 mg/kg
[4]
  ED50: 7.5 mg/kg
P. vulgaris 1076
  ED50: 25 mg/kg
Escherichia coli 205
  ED50: 22 mg/kg
E. coli 2018 R^+TEM
  ED50: 38 mg/kg
P. rettgeri 856
  ED50: 14 mg/kg
[5]
  ED50: > 300 mg/kg
[6]
  ED50: 16 mg/kg
Proteus morganii 2359
  ED50: > 300 mg/kg
In vivo; ip
  LD50: 3800 ± 290 mg/kg
In vivo; po
  LD50: > 6000 mg/kg
S. aureus 2999 i^+ p^+
  ED50: 210 mg/kg
Shigella flexneri 11836
  ED50: 20 mg/kg
S. typhimurium 277
  ED50: 65 mg/kg
[7]
  ED50: 75 mg/kg
[8]
  ED50: 100 mg/kg
E. coli 1239/19
  ED50: 12 mg/kg

## CC1=C(C(=O)O)N2C(=O)[C@@H](NC(=O)[C@H](N)c3ccccc3)[C@H]2SC1 [cephalexin]
E. coli 5
  ED50: 28 mg/kg
Serratia marcescens 344
  ED50: > 300 mg/kg
P. mirabilis 774
  ED50: 80 mg/kg
E. coli 9-25.1.
  ED50: > 300 mg/kg
Pasteurella multocid 341
  ED50: 66 mg/kg
E. coli 9
  ED50: 90 mg/kg
[1]
  ED50: > 1000 mg/kg
[2]
  ED50: 140 mg/kg
S. pyogenes Aronson
  ED50: 6.3 mg/kg
E. coli 16
  ED50: > 300 mg/kg
E. coli 205 R^+TEM
  ED50: 40 mg/kg
K. pneumoniae 329
  ED50: 47 mg/kg
[3]
  ED50: 6.6 mg/kg
E. coli 2018
  ED50: 13 mg/kg
E. coli 2
  ED50: > 1000 mg/kg
[4]
  ED50: 6 mg/kg
P. vulgaris 1076
  ED50: 45 mg/kg
Escherichia coli 205
  ED50: 40 mg/kg
E. coli 2018 R^+TEM
  ED50: 25 mg/kg
P. rettgeri 856
  ED50: 15 to 30 mg/kg
[5]
  ED50: > 300 mg/kg
[6]
  ED50: 30 mg/kg
Proteus morganii 2359
  ED50: > 1000 mg/kg
S. aureus 2999 i^+ p^+
  ED50: 85 mg/kg
Shigella flexneri 11836
  ED50: 7 mg/kg
S. typhimurium 277
  ED50: 100 mg/kg
[7]
  ED50: 105 mg/kg
[8]
  ED50: 120 mg/kg
E. coli 1239/19
  ED50: 20 mg/kg

## CC1=C(C(=O)O)N2C(=O)[C@@H](NC(=O)[C@H](N)C3=CCC=CC3)[C@H]2SC1 [cephradine]
E. coli 5
  ED50: > 30 mg/kg
Serratia marcescens 344
  ED50: > 1000 mg/kg
P. mirabilis 774
  ED50: ~50 mg/kg
E. coli 9-25.1.
  ED50: > 300 mg/kg
Pasteurella multocid 341
  ED50: 110 mg/kg
E. coli 9
  ED50: ≥ 300 mg/kg
[1]
  ED50: > 300 mg/kg
[2]
  ED50: 80 mg/kg
S. pyogenes Aronson
  ED50: 5.5 mg/kg
E. coli 16
  ED50: > 300 mg/kg
E. coli 205 R^+TEM
  ED50: 16 mg/kg
K. pneumoniae 329
  ED50: 120 mg/kg
[3]
  ED50: 6 mg/kg
E. coli 2018
  ED50: 13 mg/kg
E. coli 2
  ED50: > 300 mg/kg
[4]
  ED50: 8 mg/kg
P. vulgaris 1076
  ED50: 80 mg/kg
Escherichia coli 205
  ED50: 52 mg/kg
E. coli 2018 R^+TEM
  ED50: 38 mg/kg
P. rettgeri 856
  ED50: ≥ 30 mg/kg
[5]
  ED50: > 1000 mg/kg
[6]
  ED50: 40 mg/kg
Proteus morganii 2359
  ED50: > 1000 mg/kg
S. aureus 2999 i^+ p^+
  ED50: 32 mg/kg
Shigella flexneri 11836
  ED50: 11 mg/kg
S. typhimurium 277
  ED50: 110 mg/kg
[7]
  ED50: 250 mg/kg
[8]
  ED50: 76 mg/kg
E. coli 1239/19
  ED50: ~25 mg/kg

## COC1=C(C(=O)O)N2C(=O)[C@@H](NC(=O)[C@H](N)C3=CCC=CC3)[C@H]2SC1 [compound I]
E. coli 5
  ED50: 7.8 mg/kg
Serratia marcescens 344
  ED50: > 300 mg/kg
[9]
  chemotherapeutic activity: surprisingly stronger chemotherapeutic activity
P. mirabilis 774
  ED50: 16 mg/kg
E. coli 9-25.1.
  ED50: ≥ 300 mg/kg
Pasteurella multocid 341
  ED50: 17 mg/kg
E. coli 9
  ED50: ~30 mg/kg
[1]
  ED50: > 300 mg/kg
[2]
  ED50: 30 mg/kg
S. pyogenes Aronson
  ED50: 1 mg/kg
E. coli 16
  ED50: > 300 mg/kg
Bactericidal activity
  bactericidal activity: surprisingly stronger bactericidal activity as compared to cephradin (III) and cephalexin (IV)
E. coli 205 R^+TEM
  ED50: 7.3 mg/kg
Solubility in urin
  solubility in urin: higher as compared to compound II
K. pneumoniae 329
  ED50: 17 mg/kg
[3]
  ED50: 3.3 mg/kg
E. coli 2018
  ED50: 3 mg/kg
E. coli 2
  ED50: ~140 mg/kg
[4]
  ED50: 1 mg/kg
P. vulgaris 1076
  ED50: 20 mg/kg
Escherichia coli 205
  ED50: 9.5 mg/kg
E. coli 2018 R^+TEM
  ED50: 14 mg/kg
P. rettgeri 856
  ED50: 6.8 mg/kg
[5]
  ED50: > 300 mg/kg
[6]
  ED50: 8.5 mg/kg
Proteus morganii 2359
  ED50: > 300 mg/kg
mice
  acute toxicity: more favourable as the acute toxicity of compounds II and IV
In vivo; ip
  LD50: 7090 mg/kg
In vivo; po
  LD50: > 6000 mg/kg
S. aureus 2999 i^+ p^+
  ED50: 25 mg/kg
Shigella flexneri 11836
  ED50: 25 mg/kg
S. typhimurium 277
  ED50: 30 mg/kg
[7]
  ED50: 40 mg/kg
[8]
  ED50: 17.5 mg/kg
E. coli 1239/19
  ED50: 4 mg/kg
